These results are taken from publication PMC4165461 (Analytical Chemistry, 2014).

*1 amine or outer side, *2 acyl side, *3 side chain or, on linkers, in order; H or OH if unused. Where a SMILES comes first, the peptide text is derived from it. CO = O=C([*:1])[*:2] Some results are limits rather than exact numbers.

One data set addresses cathepsin B (Homo sapiens, UniProt P07858). Description: Cathepsin B assay by droplet ESI-MS. As to conditions: for result in the 24-compound pilot screen: 25 μM each; for inhibition at 25 µM: read-out: reduction of reaction yield in the primary screen.
Data set [1] has as its system CC(C)[C@H](NC(=O)[C@H](Cc1ccccc1)NC(=O)CNC(=O)[C@H](Cc1ccccc1)NC(=O)CN)C(=O)NCC(=O)NCC(=O)O. Description: purified protein, by the assay type. Particulars: other: substrate 0 to 400 μM, 50 nM cathepsin B; 37.0 °C.

Consider `CC(C)C[C@H](NC(=O)[C@H]1O[C@@H]1C(=O)O)C(=O)NCCCCN=C(N)N` (relative stereo) [E-64, L-trans-3-carboxyoxiran-2-carbonyl-L-leucylagmatine], for which, on cathepsin B, the “result in the 24-compound pilot screen” value is “detected as inhibitors”.

Consider `[H]/N=C(\N/C(=N/[H])NCCCCCCNC(=N)NC(=N)Nc1ccc(Cl)cc1)Nc1ccc(Cl)cc1` [Chlorhexidine, chlorhexidine], for which the inhibition at 25 µM on cathepsin B is ≥ 40%.

As for `O=c1cc(-c2ccc(O)c(O)c2)oc2cc(O)cc(O)c12` [Luteolin, luteolin], on cathepsin B, the inhibition at 25 µM is ≥ 40%.

On to `CSc1nc2cc(Cl)c(Oc3cccc(Cl)c3Cl)cc2[nH]1` [Triclabendazole, triclabendazole], for which the inhibition at 25 µM on cathepsin B is ≥ 40%.

Turning to `O=C1c2c(O)cccc2Cc2cccc(O)c21` [anthralin], the inhibition at 25 µM on cathepsin B is ≥ 40%.

Regarding `CC(C)[C@H](NC(=O)[C@H](CCCNC(=N)N)NC(=O)N[C@@H](Cc1ccccc1)C(=O)O)C(=O)N[C@H](C=O)CCCNC(=N)N` [antipain, [(S)-1-carboxy-2-phenylethyl]carbamoyl-L-arginyl-L-valyl-argininal] ({Phe-CO}-Arg-Val-Arg-aldehyde), the “result in the 24-compound pilot screen” value at cathepsin B is listed as “detected as inhibitors”.

For `CC(C)C[C@H](NC(=O)[C@@H](NC(=O)N[C@@H](Cc1ccccc1)C(=O)O)[C@@H]1CCN=C(N)N1)C(=O)N[C@H](C=O)Cc1ccccc1` [chymostatin, N-(Nα-carbonyl-[S,S]-α-(2-iminohexahydro-4-pyrimidyl)glycine-X-Phe-al)-Phe, X = Leu, Val, or Ile], the “result in the 24-compound pilot screen” value at cathepsin B was “detected as inhibitors”.

Take `CC(=O)Oc1cccc2c1C(=O)c1c(OC(C)=O)cc(C(=O)O)cc1C2=O` [diacerein]: the inhibition at 25 µM on cathepsin B was ≥ 40%.

As to `CCN(CC)C(=S)SSC(=S)N(CC)CC` [disulfiram], the inhibition at 25 µM on cathepsin B was ≥ 40%.

In the case of `C=C(CC)C(=O)c1ccc(OCC(=O)O)c(Cl)c1Cl` [ethacrynic acid], the inhibition at 25 µM on cathepsin B is ≥ 40%.

Turning to `Oc1c(Cl)cc(Cl)c(Cl)c1Cc1c(O)c(Cl)cc(Cl)c1Cl` [hexachlorophene], the inhibition at 25 µM at cathepsin B is ≥ 40%.

For the compound `CC(=O)N[C@@H](CC(C)C)C(=O)N[C@@H](CC(C)C)C(=O)N[C@H](C=O)CCCNC(=N)N` [leupeptin, N-acetyl-L-leucyl-L-leucyl-L-argininal], the “result in the 24-compound pilot screen” value at cathepsin B is reported as “detected as inhibitors”.

`O=C(c1ccc(OCCN2CCCCC2)cc1)c1c(-c2ccc(O)cc2)sc2cc(O)ccc12` [raloxifene]: the inhibition at 25 µM at cathepsin B is ≥ 40%.

Turning to `Oc1cc(Cl)ccc1Oc1ccc(Cl)cc1Cl` [triclosan], at cathepsin B, the inhibition at 25 µM was ≥ 40%.

For the compound cathepsin B (Homo sapiens), in data set [1], the Km was determined as 270 ± 34 µM.

By Km is commonly meant the concentration of substrate that gives half-maximal velocity.
